The source of these data is ChEMBL document CHEMBL5370571, “α-Synuclein Aggregation Inhibitory and Antiplasmodial Activity of Constituents from the Australian Tree Eucalyptus cloeziana” (J Nat Prod, 2023).

Active and inactive are the calls of the source. The rule behind the calls is not given here. Where only a bound is given, the exact number is not on record here.

Data set [1] deals with Alpha-synuclein (Homo sapiens) (UniProt P37840). The experiment in a line: Binding affinity to human alpha-synuclein expressed in Escherichia coli BL21 (DE3) at 100 uM incubated for 3 hrs by ETD Q-TOF ((+) HRESIMS) analysis.
For data set [2], the system named is Plasmodium falciparum. As to the kind of experiment: Antiplasmodial activity against ring stage drug-sensitive Plasmodium falciparum 3D7 assessed as inhibition of parasite growth incubated for 72 hrs by DAPI staining based assay. The note with it: 3D7, 72 h. Format: functional, organism-based.
The next data set concerns Pseudomonas aeruginosa. As to the kind of experiment: Antibacterial activity against Pseudomonas aeruginosa ATCC 27853 at 64 ug/mL incubated for 18 hrs by resazurin dye based fluorescence assay. Format: functional, organism-based. The following applies: dose 64.0 µg/ml. A general note: Alamar Blue is a resazurin reagent that responds to reducing activity.
The nature of data set [3]: Selectivity index, ratio of IC50 for cytotoxicity against HEK293 cells to IC50 for antiplasmodial activity against ring stage drug-sensitive Plasmodium falciparum 3D7. Format: toxicity, cell-based. The following applies: human, HEK293 cells versus ring stage Plasmodium falciparum 3D7; read-out: Ratio IC50.
In data set [4] the test system is Staphylococcus aureus. As to the kind of experiment: Antibacterial activity against methicillin-resistant Staphylococcus aureus ATCC 43300 at 64 ug/mL incubated for 16 to 18 hrs by resazurin dye based fluorescence assay. The note with it: dose 64.0 µg/ml, time 16-18 hrs. Format: functional, organism-based.
The subject of a further data set is HEK293. The experiment in a line: Cytotoxicity against HEK293 cells assessed as reduction in cell viability at 80 uM measured after 72 hrs by resazurin dye based fluorescence assay relative to control. The following applies: human, hek293, 72 h. Format: toxicity.
The test system of data set [5] is Staphylococcus aureus. The experiment in a line: Antibacterial activity against methicillin-susceptible Staphylococcus aureus ATCC 25923 at 64 ug/mL incubated for 16 to 18 hrs by resazurin dye based fluorescence assay. The note with it: dose 64.0 µg/ml, time 16-18 hrs. Format: functional, organism-based.
Data set [6] relates to Plasmodium falciparum. The experiment in a line: Antiplasmodial activity against ring stage drug-sensitive Plasmodium falciparum 3D7 assessed as inhibition of parasite growth at 40 uM incubated for 72 hrs by DAPI staining based assay. Format: functional, organism-based.
Data set [7] concerns the target Alpha-synuclein (Homo sapiens) (UniProt P37840). The experiment in a line: Inhibition of human alpha-synuclein aggregation expressed in Escherichia coli BL21 (DE3) at 10:1 compound to protein molar ratio measured after 36 hrs by thioflavin T fluorescence assay relative to control. The following applies: concentration not given here.
The target is the same in data set [8]. The experiment in a line: Inhibition of human alpha-synuclein aggregation expressed in Escherichia coli BL21 (DE3) at 400 uM measured after 36 hrs by thioflavin T fluorescence assay.
Data set [9] concerns Plasmodium falciparum. As to the kind of experiment: Antiplasmodial activity against Plasmodium falciparum 3D7 assessed as inhibition of parasite growth. Format: functional, organism-based.
A short description of data set [10]: Cytotoxicity against HEK293 cells assessed as reduction in cell viability measured after 72 hrs by resazurin dye based fluorescence assay. Format: toxicity. The note with it: human.

As usually defined, the IC50 is the point on the concentration scale where inhibition reaches its midpoint. As to `CC(C)=C[C@@]1(O)C(=O)C(C)(C)C(=O)C(C)(C)[C@H]1OC(=O)C(C)C`, the outcome (in data set [1]; with Pseudomonas aeruginosa; in the data set on Staphylococcus aureus [4]; in the data set with Staphylococcus aureus [5]) was inactive. Also, the IC50 in the data set with Plasmodium falciparum [2] came to 16000 nM. Moreover, in data set [3], the selectivity ratio was > 5. In addition, in the data set with HEK293, the Activity result is “Non-Toxic”.

On to `CCc1nc(N)nc(N)c1-c1ccc(Cl)cc1` [PYRIMETHAMINE], for which the IC50 in the data set on Plasmodium falciparum [2] was determined as 17 nM. Also, in data set [3], the selectivity ratio came out at 588. Besides, the Activity in the data set with HEK293 turned out to be 31%.

Turning to `CC(C)(O)[C@@H]1CC[C@@]2(C)CCC[C@@](C)(O)[C@@H]2C1`, the result in data set [1] was inactive.

With `CC(C)CC[C@]1(O)[C@H](O)C(C)(C)[C@@H](O)C(C)(C)[C@@H]1O`, the result in the data set on Plasmodium falciparum [6] was inactive.

As a reminder, the inhibition is the percentage by which the read-out fell short of the control. As for `CC(C)C[C@]1(O)C(O)=C([C@@H](C2=C(O)C(C)(C)C(=O)C(C)(C)C2=O)C(C)C)C(=O)C([C@H](C2=C(O)C(C)(C)C(=O)C(C)(C)C2=O)C(C)C)=C1O`, the result in data set [1] was Active. Further, in the data set on Plasmodium falciparum [2], the half-inhibitory concentration (IC50) turned out to be 9500 nM. In addition, in data set [7], the inhibition turned out to be 39.5%. For the same molecule, the outcome with Pseudomonas aeruginosa, in the data set on Staphylococcus aureus [4] and with Staphylococcus aureus [5] was inactive. In addition, the selectivity ratio in data set [3] is > 8.4. Further, the Activity entry in the data set with HEK293 is listed as “Non-Toxic”. In addition, the inhibition result in data set [8] was “inactive”.

For the molecule `CC(C)CC(=O)c1c(O)c2c(c3c1O[C@@]1(C(C)C)OC4=C(C(=O)C(C)(C)C(=O)C4(C)C)[C@@H]31)OC1=C(C(=O)C(C)(C)C(=O)C1(C)C)[C@@H]2CC(C)C`, the IC50 in the data set on Plasmodium falciparum [9] was > 40000 nM.

In the case of `C[C@H]1[C@H](OC(=O)CCC(=O)O)O[C@@H]2O[C@@]3(C)CC[C@H]4[C@H](C)CC[C@@H]1[C@@]24OO3` [ARTESUNATE], in the data set with Plasmodium falciparum [2], the concentration for half-maximal inhibition (IC50) turned out to be 1.4 nM. In data set [3], the selectivity ratio stood at 1750. Further, the Activity with HEK293 is 20%.

For the molecule `CC(C)CC(=O)c1c(O)c2c(c3c1O[C@@]1(C(C)C)OC4=C(C(=O)C(C)(C)C(=O)C4(C)C)[C@@H]31)OC1=C(C(=O)C(C)(C)C(=O)C1(C)C)[C@H]2CC(C)C`, the IC50 in the data set on Plasmodium falciparum [9] is 1000 nM.

Take `CC(=O)O[C@@H]1C(C)(C)C(=O)C(C)(C)C(=O)[C@]1(O)CC(C)C`: in [1], the result was inactive.

Turning to `O=C1C=C(c2ccc(O)cc2)[C@@]2(O1)O[C@@]1(OC(=O)C=C1c1ccc(O)cc1)C(c1ccc(O)cc1)=C2c1ccc(O)cc1`, the 50% inhibitory concentration (IC50) in the data set on Plasmodium falciparum [9] is 5100 nM.

Regarding `CC1(C)CC2=C(OO1)C(C)(C)C(=O)C(C)(C)C2=O`, in data set [1], the outcome was inactive. Further, the Activity result in the data set with HEK293 was “Non-Toxic”.

With `CC1(C)C=C2C(=O)C(C)(C)C(=O)C(C)(C)[C@@]2(O)OO1`, the result in [1] was inactive.

For `CC(C)C[C@@]1(O)C(=O)C(C)(C)C(=O)C(C)(C)[C@H]1OC(=O)C(C)C`, the outcome (in data set [1]; with Pseudomonas aeruginosa; in the data set with Staphylococcus aureus [4]; in the data set with Staphylococcus aureus [5]) was inactive. In addition, the half-inhibitory concentration (IC50) with Plasmodium falciparum [2] is 6600 nM. For the same molecule, the selectivity ratio in data set [3] is > 12.1. The Activity result in the data set with HEK293 is recorded as “Non-Toxic”.

For `CC(C)=CC(=O)[C@]1(O)[C@@H](O)C(C)(C)C(=O)C1(C)C`, the result in data set [1] was inactive.

In the case of `COc1ccc(C[C@H](N)C(=O)N[C@H]2[C@@H](O)[C@H](n3cnc4c(N(C)C)ncnc43)O[C@@H]2CO)cc1` [PUROMYCIN], in the data set on Plasmodium falciparum [2], the IC50 stood at 91 nM. Further, the selectivity ratio in [3] amounted to 9.2. For the same molecule, the 50% inhibitory concentration (IC50) at 72 h in [10] was determined as 837 nM.
